This passage reports IC50 results from US20220144812A1, “QUINOLINE DERIVATIVES AND THEIR USE FOR THE TREATMENT OF CANCER” (Epizyme, Inc., priority 2019, published 2022).

The test system of test [1] is H3K18Ac in HB-CLS-2 cells. Nature of the test: H3K18AC in-cell western (ICW) assay. The class given is cell-based. The note with it: H3K18Ac in-cell western, read-out: CREBBP ICW IC50. The method in brief: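 HB-CLS-2 cells seeded 16–24 hours before 2 hr compound treatment at 37° C, 5% CO2, then methanol-fixed. H3K18Ac detected with rabbit monoclonal primary (overnight, 4° C) and 800CW anti-rabbit secondary; DRAQ5 stained DNA. Plates imaged at 700 and 800 nm for integrated intensity; IC50 in μM.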

For test [2], the system named is 647V cells. The test can be described thus: High throughput proliferation (HTP) assay. In kind it is cell-based. As to conditions: high throughput proliferation, read-out: CREBBP HTP IC50. The method in brief: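 Exponentially growing 647V cells in DMEM with 15% FBS were treated in triplicate with increasing compound concentrations at 37° C, 5% CO2. Viable cell number was read by CellTiter-Glo luminescence on day 7; IC50 in micromolar.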

The target of test [3] is T1, CREBBP (1084-1701) (Homo sapiens, UniProt Q92793).
T1 construct: measured in the following biochemical assay using CREBBP (1084-1701); purchased
T1 sequence (Q92793 1084-1701): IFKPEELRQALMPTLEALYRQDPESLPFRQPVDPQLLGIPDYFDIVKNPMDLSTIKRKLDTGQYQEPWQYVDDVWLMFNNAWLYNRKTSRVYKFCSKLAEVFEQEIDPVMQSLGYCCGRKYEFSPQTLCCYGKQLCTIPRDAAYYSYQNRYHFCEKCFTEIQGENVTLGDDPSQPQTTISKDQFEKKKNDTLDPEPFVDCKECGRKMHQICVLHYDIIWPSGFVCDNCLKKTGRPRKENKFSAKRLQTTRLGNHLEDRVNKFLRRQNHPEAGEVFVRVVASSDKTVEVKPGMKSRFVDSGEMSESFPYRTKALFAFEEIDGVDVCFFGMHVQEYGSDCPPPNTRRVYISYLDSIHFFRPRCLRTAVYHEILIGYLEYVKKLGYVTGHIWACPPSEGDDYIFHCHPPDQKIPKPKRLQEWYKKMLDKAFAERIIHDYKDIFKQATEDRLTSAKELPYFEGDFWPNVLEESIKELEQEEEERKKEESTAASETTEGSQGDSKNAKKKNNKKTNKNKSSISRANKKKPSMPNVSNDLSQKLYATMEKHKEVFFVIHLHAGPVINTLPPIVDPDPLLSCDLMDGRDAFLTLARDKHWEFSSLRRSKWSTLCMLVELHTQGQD
Nature of the test: Biochemical assay for CREBBP (1084-1701), SAMDI. As to conditions: SAMDI, read-out: CREBBP Biochemistry IC50. The method in brief: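 CREBBP (1084-1701) preincubated with compound 30 min at RT, then substrate mix (biotin-H3 11-25 K14R/K23R peptide, acetyl-CoA) added for 30 min at RT. Reaction stopped with formic acid, neutralised with sodium bicarbonate. Peptide acetylation read by SAMDI mass spectrometry to derive IC50.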

In test [4] the target is T2, EP300 (P300(1048-1664)) (Homo sapiens, UniProt Q09472).
T2 construct: P300(1048-1664)
T2 sequence (Q09472 1048-1664): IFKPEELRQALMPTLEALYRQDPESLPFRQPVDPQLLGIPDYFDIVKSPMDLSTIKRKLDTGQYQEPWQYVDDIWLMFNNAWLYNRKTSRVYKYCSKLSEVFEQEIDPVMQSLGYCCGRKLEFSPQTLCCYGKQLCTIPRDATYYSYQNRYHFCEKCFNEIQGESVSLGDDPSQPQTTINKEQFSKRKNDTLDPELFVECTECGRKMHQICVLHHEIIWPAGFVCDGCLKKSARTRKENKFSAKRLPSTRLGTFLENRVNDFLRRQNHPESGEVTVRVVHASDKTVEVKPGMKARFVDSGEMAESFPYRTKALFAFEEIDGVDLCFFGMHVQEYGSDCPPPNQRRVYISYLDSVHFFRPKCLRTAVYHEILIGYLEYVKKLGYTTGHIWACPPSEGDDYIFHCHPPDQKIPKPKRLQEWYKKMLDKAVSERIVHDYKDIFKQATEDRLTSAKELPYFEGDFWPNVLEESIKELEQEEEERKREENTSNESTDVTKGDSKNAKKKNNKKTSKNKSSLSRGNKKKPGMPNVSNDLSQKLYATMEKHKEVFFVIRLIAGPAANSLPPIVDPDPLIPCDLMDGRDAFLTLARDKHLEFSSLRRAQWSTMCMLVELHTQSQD
Nature of the test: Biochemical assay for EP300, SAMDI. The note with it: EP300, SAMDI; read-out: EP300 Biochemistry IC50. The text has this: The following example describes materials and methods relating to a biochemical assay for EP300. IC50 values (micromolar (μM)) are summarized in Table 1, Table 2, and Table 3 under the column labeled: “EP300 Biochemistry IC50 (micromolar).”

[5] abbreviates: Homo sapiens, 647-V, 647V cells.

Read-outs that look alike come from different tables or passages of the source.

As to `CCn1ncc(CN(C)C(=O)c2nc(-c3ccc(OCCNC)c(Cl)c3)nc3ccc(OC)cc23)c1C` [Compound 152], the IC50 (usually the concentration at which inhibition is half-maximal) in test [1] was 8.9 µM; in test [2] (Homo sapiens, 647-V) it was 1.6 µM; in test [3], 3.6 µM; in test [4] it was 3.6 µM.

Turning to `CCn1ncc(CN(C)C(=O)c2nc(-c3ccc(NC4CCNCC4)cn3)nc3ccc(Cl)cc23)c1C` [Compound 153], the IC50 was 9 µM in test [1], 4.9 µM in test [2], 0.39 µM in test [3] and 0.35 µM in test [4].

As for `CCn1ncc(CN(C)C(=O)c2nc(-c3ccnc(NC)c3)nc3ccc(Cl)cc23)c1C` [Compound 155], the IC50 in test [1] amounted to 9.3 µM; in test [2] (Homo sapiens, 647-V), 5 µM; in test [3], 35 µM; in test [4], 26 µM.

Regarding `CCn1ncc(CN(C)C(=O)c2nc(-c3ccc(C(=O)NC)cc3)nc3ccc(Cl)cc23)c1C` [Compound 156], the concentration for half-maximal inhibition (IC50) in test [1] came out at 9.6 µM; in test [2] (Homo sapiens, 647-V) it was 9.6 µM; in test [3], 34 µM; in test [4], 13 µM.

On to `CCCOc1ccc(-c2nc(C(=O)N(C)Cc3cnn(CC)c3C)c3cc(Cl)ccc3n2)cc1Cl` [Compound 157], for which the concentration for half-maximal inhibition (IC50) in test [1] was found to be 9.6 µM; in test [2] it was 5.6 µM; in test [3], 3.2 µM; in test [4], 2.8 µM.

As to `CCn1ncc(CN(C)C(=O)c2nc(N3CCc4[nH]c(C)nc4C3)nc3ccc(Cl)cc23)c1C` [Compound 159], the half-maximal inhibitory concentration (IC50) in test [1] is 10 µM; in test [2] (Homo sapiens, 647-V), 10 µM; in test [3], 20 µM; in test [4] it was 7.7 µM.

For `CCn1ncc(CN(C)C(=O)c2nc(-c3cc(C(=O)NC4CCN(C)CC4)nn3C)nc3ccc(Cl)cc23)c1C` [Compound 160], the IC50 stood at 11 µM in test [1]; 5.1 µM in test [2] (Homo sapiens, 647-V); 32 µM in test [3]; 20 µM in test [4].

For the molecule `CCn1ncc(CN(C)C(=O)c2nc(N3CCc4cn[nH]c4C3)nc3ccc(Cl)cc23)c1C` [Compound 161], the IC50 in test [1] worked out at 11 µM; in test [2] (Homo sapiens, 647-V), 11 µM; in test [3], 17 µM; in test [4], 6.2 µM.

For `CCn1ncc(CN(C)C(=O)c2nc(-c3cc(C(=O)NCCCN4CCCC4)n(Cc4ccc(OC)cc4)n3)nc3ccc(Cl)cc23)c1C` [Compound 163], the IC50 in test [1] stood at 12 µM; in test [2] (Homo sapiens, 647-V), 2.7 µM; in test [3], 62 µM; in test [4], 35 µM.

For the molecule `CCn1ncc(CN(C)C(=O)c2nc(-c3ccc(C(=O)NC)c(C)c3)nc3ccc(Cl)cc23)c1C` [Compound 164], the half-inhibitory concentration (IC50) in test [1] is 13 µM; in test [2] (Homo sapiens, 647-V), 9.8 µM; in test [3] it was 52 µM; in test [4], 30 µM.

On to `CCn1ncc(CN(C)C(=O)c2cc(-c3ccc(OCCCO)cn3)nc3ccc(Cl)cc23)c1C` [Compound 166], for which the IC50 is 13 µM in test [1]; 11 µM in test [2] (Homo sapiens, 647-V); 28 µM in test [3]; 15 µM in test [4].

For `CCn1ncc(CN(C)C(=O)c2nc(N3CCc4[nH]cnc4C3)nc3ccc(Cl)cc23)c1C` [Compound 167], the IC50 in test [1] was found to be 13 µM; in test [2] (Homo sapiens, 647-V), 11 µM; in test [3], 18 µM; in test [4], 8 µM.

With `CCn1ncc(CN(C)C(=O)c2cc(-n3cc4c(n3)CNCC4)nc3ccc(Cl)cc23)c1C` [Compound 168], the IC50 in test [1] was 13 µM; in test [2], 18 µM; in test [3], 18 µM; in test [4], 5.8 µM.

On to `CCn1ncc(CN(C)C(=O)c2nc(-c3cc(C(=O)NCCN4CCCC4)on3)nc3ccc(Cl)cc23)c1C` [Compound 169], for which the IC50 in test [1] worked out at 13 µM; in test [2] (Homo sapiens, 647-V), 6.7 µM; in test [3], 8.4 µM; in test [4], 15 µM.

On to `CCn1ncc(CN(C)C(=O)c2nc(-c3cn(C)cn3)nc3ccc(Cl)cc23)c1C` [Compound 170], for which the 50% inhibitory concentration (IC50) in test [1] worked out at 14 µM; in test [2] (Homo sapiens, 647-V) it was 6.9 µM; in test [3], 58 µM; in test [4] it was 13 µM.

For the molecule `CCn1ncc(CN(C)C(=O)c2nc(-c3ccc(-c4ccn[nH]4)cc3)nc3ccc(Cl)cc23)c1C` [Compound 171], the IC50 in test [1] is 14 µM; in test [2] (Homo sapiens, 647-V), 7.8 µM; in test [3], 8.5 µM; in test [4], 3.6 µM.

Regarding `CCn1ncc(CN(C)C(=O)c2nc(-c3ccc(OCCO)cn3)nc3ccc(Cl)cc23)c1C` [Compound 173], the IC50 came out at 14 µM in test [1]; 11 µM in test [2] (Homo sapiens, 647-V); 17 µM in test [3]; 7.8 µM in test [4].

Take `CCn1ncc(CN(C)C(=O)c2nc(-c3cc(CN(C)Cc4ccc(OC)cc4)nn3C)nc3ccc(Cl)cc23)c1C` [Compound 176]: the half-maximal inhibitory concentration (IC50) in test [1] is 16 µM; in test [2] (Homo sapiens, 647-V), 8.2 µM; in test [3], 86 µM; in test [4] it was 44 µM.

Consider `CCn1ncc(CN(C)C(=O)c2nc(-c3cc(C(=O)NCCN4CCCC4)n(Cc4ccc(OC)cc4)n3)nc3ccc(Cl)cc23)c1C` [Compound 177], for which the 50% inhibitory concentration (IC50) in test [1] turned out to be 16 µM; in test [2] (Homo sapiens, 647-V) it was 3.4 µM; in test [3], 54 µM; in test [4], 44 µM.

As for `CCn1ncc(CN(C)C(=O)c2nc(-n3cc4c(n3)CNCC4)nc3ccc(Cl)cc23)c1C` [Compound 179], the IC50 worked out at 18 µM in test [1]; 20 µM in test [2] (Homo sapiens, 647-V); 115 µM in test [3]; 55 µM in test [4].

With `CCn1ncc(CN(C)C(=O)c2nc(-n3cc(C)cn3)nc3ccc(Cl)cc23)c1C` [Compound 182], the half-maximal inhibitory concentration (IC50) in test [1] turned out to be 19 µM; in test [2] (Homo sapiens, 647-V), 7.8 µM; in test [3], 70 µM; in test [4], 19 µM.

For the molecule `CCn1ncc(CN(C)C(=O)c2cc(-c3cn(C)c(OC)n3)nc3cc(Cl)ccc23)c1C` [Compound 185], the IC50 in test [1] stood at 20 µM; in test [2] (Homo sapiens, 647-V), 20 µM; in test [3], 98 µM; in test [4], 56 µM.

`CCn1ncc(CN(C)C(=O)c2cc(-n3ncc4c3CNCC4)nc3ccc(Cl)cc23)c1C` [Compound 186]: the 50% inhibitory concentration (IC50) was 20 µM in test [1]; 7.8 µM in test [2] (Homo sapiens, 647-V); 114 µM in test [3]; 64 µM in test [4].

For `CCn1ncc(CN(C)C(=O)c2nc(-c3cnc(CO)n3C)nc3ccc(Cl)cc23)c1C` [Compound 208], the half-maximal inhibitory concentration (IC50) in test [1] (HB-CLS-2 cells) came to 20 µM; in test [2] (setting [5]), 20 µM; in test [3], 50 µM; in test [4] it was 36 µM.

For `CCn1ncc(CN(C)C(=O)c2nc(N3CCn4cc(C)nc4C3)nc3ccc(Cl)cc23)c1C` [Compound 220], the IC50 in test [1] (HB-CLS-2 cells) was determined as 20 µM; in test [2] (setting [5]), 20 µM; in test [3], 141 µM; in test [4], 100 µM.

As to `CCn1ncc(CN(C)C(=O)c2cc(-c3cn[nH]c3N)nc3ccc(Cl)cc23)c1C` [Compound 227], the concentration for half-maximal inhibition (IC50) in test [1] (HB-CLS-2 cells) came out at 20 µM; in test [2] (setting [5]), 20 µM; in test [3], 50 µM; in test [4] it was 41 µM.

Regarding `CCn1ncc(CN(C)C(=O)c2nc(-c3cc(CNC)n(C)n3)nc3ccc(Cl)cc23)c1C` [Compound 380], the IC50 in test [1] (HB-CLS-2 cells) was found to be 20 µM; in test [2] (setting [5]) it was 20 µM; in test [3], 25 µM; in test [4], 14 µM.

Regarding `CCn1ncc(CN(C)C(=O)c2nc(-c3cc(C)cc(NC4CCNC4)c3)cc3ccc(Cl)cc23)c1C` (centres unmarked) [Compound 383], the concentration for half-maximal inhibition (IC50) in test [1] (HB-CLS-2 cells) amounted to 0.19 µM; in test [2] (647V cells), 0.063 µM; in test [3], 0.017 µM; in test [4], 0.0051 µM.

`CCn1ncc(CN(C)C(=O)c2nc(-c3cc(NC(=O)CNC)cc(OC)c3)nc3ccc(Cl)cc23)c1C` [Compound 384]: the IC50 in test [1] (HB-CLS-2 cells) amounted to 0.13 µM; in test [2] (setting [5]), 0.1 µM; in test [3], 0.033 µM; in test [4], 0.012 µM.
